Measurements reported in the supplement of paper PMC10307832.

Assays:
Assay in all cases: relative viability (nuclei count vs DMSO), 5 days (fraction); higher = more cells survive
EHT 1864 = compound: C1COCCN1CC2=CC(=O)C(=CO2)OCCCCCSC3=C4C=CC(=CC4=NC=C3)C(F)(F)F [EHT 1864]
How it was run: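 Viability here means nuclei in treated wells divided by nuclei in vehicle wells, reported as the median across plates. Only plates with control CV below 25% and at least one doubling passed. Lung cancer cell lines in 1536-well plates were exposed to five √10-spaced library-drug doses for 5 days and counted from 4× Hoechst images in MetaXpress.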

EHT 1864 + Trametinib = compound: C1COCCN1CC2=CC(=O)C(=CO2)OCCCCCSC3=C4C=CC(=CC4=NC=C3)C(F)(F)F [EHT 1864] + CC(=O)Nc1cccc(-n2c(=O)n(C3CC3)c(=O)c3c(Nc4ccc(I)cc4F)n(C)c(=O)c(C)c32)c1 [Trametinib] (partner 0.02 µM)
How it was run: (§1)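 The day after seeding in 1536-well plates, lung cancer cell lines were treated by pin tool with a single drug, or with a fixed anchor-drug dose together with five library-drug doses (not always all listed) in √10 steps. After 5 days, a combined fix-and-stain solution (final 0.05% Triton X-100, 1% formaldehyde, 1 ug/ml Hoechst) was added. Nuclei counted on 4× images gave relative viability as treated counts over vehicle counts, reported as the median of duplicate plates.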

EHT 1864 + OSI-027 = compound: C1COCCN1CC2=CC(=O)C(=CO2)OCCCCCSC3=C4C=CC(=CC4=NC=C3)C(F)(F)F [EHT 1864] + COc1cccc2cc(-c3nc([C@H]4CC[C@H](C(=O)O)CC4)n4ncnc(N)c34)[nH]c12 [OSI-027] (partner 0.5 µM)
How it was run: as §1

EHT 1864 + Phenformin = compound: C1COCCN1CC2=CC(=O)C(=CO2)OCCCCCSC3=C4C=CC(=CC4=NC=C3)C(F)(F)F [EHT 1864] + N=C(N)NC(=N)NCCc1ccccc1 [Phenformin] (partner 250 µM)
How it was run: as §1

| Cell Line | relative viability (EHT 1864; 0.04 µM) | relative viability (EHT 1864; 0.1265 µM) | relative viability (EHT 1864; 0.4 µM) | relative viability (EHT 1864; 1.265 µM) | relative viability (EHT 1864; 4 µM) | relative viability (EHT 1864 + Trametinib; first compound 0.04 µM) | relative viability (EHT 1864 + Trametinib; first compound 0.4 µM) | relative viability (EHT 1864 + Trametinib; first compound 1.265 µM) | relative viability (EHT 1864 + Trametinib; first compound 4 µM) | relative viability (EHT 1864 + OSI-027; first compound 0.04 µM) | relative viability (EHT 1864 + OSI-027; first compound 0.1265 µM) | relative viability (EHT 1864 + OSI-027; first compound 0.4 µM) | relative viability (EHT 1864 + OSI-027; first compound 1.265 µM) | relative viability (EHT 1864 + OSI-027; first compound 4 µM) | relative viability (EHT 1864 + Phenformin; first compound 0.04 µM) | relative viability (EHT 1864 + Phenformin; first compound 0.1265 µM) | relative viability (EHT 1864 + Phenformin; first compound 0.4 µM) | relative viability (EHT 1864 + Phenformin; first compound 1.265 µM) | relative viability (EHT 1864 + Phenformin; first compound 4 µM) | relative viability (EHT 1864 + Trametinib; first compound 0.1265 µM) |
| --- | --- | --- | --- | --- | --- | --- | --- | --- | --- | --- | --- | --- | --- | --- | --- | --- | --- | --- | --- | --- |
| NCI-H441 | 1.03 | 0.747 | 0.941 | 1.12 | 1.17 | 0.365 | 0.544 | 0.573 | 0.51 | 0.685 | 0.511 | 0.414 | 0.581 | 0.734 | 0.845 | 0.604 | 0.717 | 0.853 | 0.932 |  |
| NCI-H460 | 1.01 | 0.921 | 0.966 | 0.965 | 0.857 |  | 0.222 | 0.133 | 0.134 | 0.678 | 0.576 | 0.649 | 0.621 | 0.552 | 0.508 | 0.443 | 0.513 | 0.518 | 0.568 | 0.108 |
| NCI-H520 | 0.885 | 0.889 | 0.889 | 1.04 | 1.02 | 0.692 | 0.732 | 0.659 | 0.67 | 0.266 | 0.25 | 0.247 | 0.24 | 0.224 | 0.517 | 0.422 | 0.785 | 0.669 | 0.711 | 0.628 |
| NCI-H522 | 0.845 | 0.939 | 0.996 | 1 | 0.855 | 0.756 | 0.836 | 0.722 | 0.756 | 0.818 | 0.631 | 0.696 | 0.662 | 0.652 | 0.538 | 0.613 | 0.605 | 0.571 | 0.4 | 0.917 |
| NCI-H596 | 0.947 | 0.829 | 1.02 | 0.929 | 0.991 | 0.796 | 0.812 | 0.738 | 0.857 | 0.716 | 0.651 | 0.803 | 0.572 | 0.529 | 0.75 | 0.523 | 0.753 | 0.571 | 0.813 | 0.658 |
| NCI-H647 | 1.01 | 0.775 | 1.03 | 1.02 | 0.908 | 0.437 | 0.604 | 0.429 | 0.464 | 0.622 | 0.368 | 0.598 | 0.738 | 0.621 | 0.589 | 0.432 | 0.561 | 0.6 | 0.545 | 0.353 |
| NCI-H650 | 0.894 | 0.846 | 0.968 | 1.01 | 1.03 | 0.995 | 0.898 | 1.23 | 1.11 | 0.53 | 0.354 | 0.546 | 0.531 | 0.49 | 0.403 | 0.455 | 0.48 | 0.447 | 0.459 | 0.92 |
| NCI-H661 | 1.01 | 1.01 | 0.975 | 0.941 | 0.926 | 0.527 | 0.616 | 0.565 | 0.498 | 0.735 | 0.587 | 0.659 | 0.711 | 0.597 | 0.339 | 0.273 | 0.301 | 0.302 | 0.269 | 0.53 |
| NCI-H727 | 0.924 | 0.909 | 0.936 | 0.979 | 0.946 | 0.389 | 0.382 | 0.374 | 0.421 | 0.525 | 0.532 | 0.592 | 0.576 | 0.61 | 0.551 | 0.574 | 0.481 | 0.461 | 0.597 | 0.386 |
| NCI-H838 | 0.915 | 0.851 | 0.99 | 1.01 | 1 | 0.5 | 0.553 | 0.514 | 0.536 | 0.371 | 0.313 | 0.395 | 0.376 | 0.425 | 0.558 | 0.513 | 0.638 | 0.697 | 0.588 | 0.466 |
| NCI-H1355 | 0.949 | 0.732 | 0.965 | 0.984 | 0.987 | 0.461 | 0.393 | 0.452 | 0.412 | 0.417 | 0.289 | 0.409 | 0.397 | 0.396 | 0.471 | 0.425 | 0.447 | 0.446 | 0.433 | 0.39 |
| NCI-H1395 | 0.933 | 0.752 | 1.01 | 0.86 | 0.861 | 1.07 | 0.977 | 0.978 | 1.08 | 0.649 | 0.515 | 0.683 | 0.621 | 0.696 | 0.518 | 0.422 | 0.45 | 0.474 | 0.431 | 0.908 |
| NCI-H1437 | 1.05 | 0.94 | 0.936 | 0.839 | 0.762 | 0.531 | 0.56 | 0.485 | 0.45 | 0.852 | 0.916 | 0.813 | 0.722 | 0.703 | 0.34 | 0.262 | 0.298 | 0.311 | 0.335 | 0.411 |
| NCI-H1650 | 0.892 | 0.676 | 0.907 | 0.826 | 0.754 | 0.521 | 0.515 | 0.515 | 0.568 |  |  | 0.599 | 0.638 | 0.611 |  |  | 0.478 | 0.435 | 0.39 | 0.568 |
| NCI-H1651 | 0.944 | 0.958 | 0.918 | 0.949 | 0.98 | 0.832 | 0.822 | 0.817 | 0.808 | 0.704 | 0.675 | 0.75 | 0.647 | 0.69 | 0.376 | 0.358 | 0.333 | 0.345 | 0.334 | 0.827 |
| NCI-H1666 | 1.05 | 0.879 | 0.957 | 0.916 | 1.08 | 0.961 | 0.8 | 0.884 | 0.862 | 0.887 | 0.691 | 0.8 | 0.81 | 0.833 | 0.614 | 0.504 | 0.584 | 0.562 | 0.627 | 0.886 |
| NCI-H1734 | 1.07 | 0.702 | 1.03 | 1.09 | 0.906 | 0.781 | 0.643 | 0.592 | 0.61 | 0.706 |  | 0.611 | 0.66 | 0.592 | 0.539 |  | 0.397 | 0.433 | 0.432 | 0.709 |
| NCI-H1755 | 0.989 | 0.955 | 0.927 | 0.979 | 0.938 | 0.732 | 0.768 | 0.701 | 0.726 | 0.779 | 0.619 | 0.691 | 0.619 | 0.618 | 0.607 | 0.564 | 0.594 | 0.612 | 0.629 | 0.782 |
| NCI-H1792 | 0.906 |  | 0.723 | 0.988 | 1 | 0.432 | 0.438 | 0.345 | 0.456 | 0.67 | 0.65 | 0.717 | 0.689 | 0.68 | 0.256 |  |  | 0.304 | 0.368 |  |
| NCI-H1793 | 0.729 | 0.781 | 0.929 | 0.928 | 0.963 | 0.37 | 0.465 | 0.428 | 0.434 | 0.226 |  | 0.313 |  | 0.262 | 0.301 |  | 0.383 |  | 0.392 | 0.356 |
| NCI-H1915 | 0.964 |  | 1.01 | 0.98 | 0.92 | 0.295 | 0.283 | 0.28 | 0.286 | 0.657 |  | 0.641 | 0.599 | 0.545 | 0.396 |  | 0.366 | 0.382 | 0.374 |  |
| NCI-H1944 | 1.09 |  | 1 | 1.01 | 0.879 | 0.426 | 0.42 | 0.39 | 0.387 | 0.44 |  | 0.443 | 0.417 | 0.399 | 0.233 |  | 0.224 | 0.191 | 0.199 |  |
| NCI-H1975 | 0.886 | 0.954 | 0.887 | 0.841 | 0.895 | 0.375 | 0.296 | 0.225 | 0.327 | 0.709 | 0.668 | 0.667 |  | 0.591 | 0.406 | 0.42 | 0.407 |  | 0.396 | 0.329 |
| NCI-H1993 | 0.965 |  | 0.957 | 1.03 | 0.873 | 0.579 | 0.5 | 0.485 | 0.543 | 0.548 |  | 0.541 | 0.554 | 0.553 | 0.537 |  | 0.488 | 0.534 | 0.508 |  |
| NCI-H2009 | 0.971 | 0.945 | 1.03 | 0.906 | 0.877 | 0.252 | 0.301 | 0.336 | 0.277 | 0.594 | 0.521 | 0.677 | 0.62 | 0.511 | 0.467 | 0.468 | 0.493 | 0.362 | 0.436 | 0.267 |
| NCI-H2023 | 0.944 | 0.817 | 0.893 | 0.925 | 0.939 | 0.514 | 0.492 | 0.569 | 0.573 | 0.373 | 0.314 | 0.375 | 0.313 | 0.369 | 0.405 | 0.417 | 0.371 | 0.358 | 0.347 | 0.459 |
| NCI-H2085 | 0.988 | 0.897 | 0.987 | 1.01 | 0.903 | 0.417 | 0.514 | 0.604 | 0.543 | 0.719 |  | 0.772 | 0.719 | 0.812 | 0.731 |  | 0.832 | 0.808 | 0.732 | 0.533 |
| NCI-H2087 | 1.12 |  | 0.956 | 0.832 | 0.942 | 0.188 | 0.211 | 0.167 | 0.215 | 0.496 |  | 0.578 | 0.496 | 0.586 | 0.453 |  | 0.462 | 0.434 | 0.518 |  |
